Experimental data from ChEMBL document CHEMBL5678818, “Discovery of potent SOS1 inhibitors that block RAS activation via disruption of the RAS-SOS1 interaction” (Proc Natl Acad Sci U S A, 2019).

What was measured:
[1] = molecular target: Serine/threonine-protein kinase 32A (Homo sapiens) (UniProt Q8WU08); assay: Inhibition of YANK1 (unknown origin) assessed as residual activity at 1000 nM by KINOMEscan analysis relative to control
[2] = molecular target: MAP kinase-activated protein kinase 2 (Homo sapiens) (UniProt P49137); assay: Inhibition of MAPKAPK2 (unknown origin) assessed as residual activity at 1000 nM by KINOMEscan analysis relative to control
[3] = molecular target: Tyrosine-protein kinase Tec (Homo sapiens) (UniProt P42680); assay: Inhibition of TEC (unknown origin) assessed as residual activity at 1000 nM by KINOMEscan analysis relative to control
[4] = molecular target: T1, Non-receptor tyrosine-protein kinase TNK1 (Homo sapiens) (UniProt Q13470); assay: Inhibition of TNK1 (unknown origin) assessed as residual activity at 1000 nM by KINOMEscan analysis relative to control
T1 sequence (whole entry): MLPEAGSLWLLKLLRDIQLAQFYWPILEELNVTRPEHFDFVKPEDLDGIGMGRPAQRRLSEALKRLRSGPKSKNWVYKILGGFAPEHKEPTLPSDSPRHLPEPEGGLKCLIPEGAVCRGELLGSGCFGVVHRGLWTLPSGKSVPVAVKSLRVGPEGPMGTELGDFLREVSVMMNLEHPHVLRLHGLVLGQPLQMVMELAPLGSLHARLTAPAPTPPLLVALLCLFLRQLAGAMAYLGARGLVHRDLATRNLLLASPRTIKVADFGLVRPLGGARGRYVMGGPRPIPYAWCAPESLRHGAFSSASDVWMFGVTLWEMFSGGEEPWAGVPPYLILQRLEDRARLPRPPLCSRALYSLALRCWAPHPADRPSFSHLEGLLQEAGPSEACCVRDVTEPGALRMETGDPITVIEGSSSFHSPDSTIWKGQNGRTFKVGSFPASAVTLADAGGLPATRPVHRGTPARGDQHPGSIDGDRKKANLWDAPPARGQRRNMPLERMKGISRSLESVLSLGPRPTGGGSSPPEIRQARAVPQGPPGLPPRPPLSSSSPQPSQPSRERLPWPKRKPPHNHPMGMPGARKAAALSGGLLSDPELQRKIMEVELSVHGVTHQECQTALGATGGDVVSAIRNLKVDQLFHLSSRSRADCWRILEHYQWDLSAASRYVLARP

[5] = molecular target: T2, Ephrin type-B receptor 4 (Homo sapiens) (UniProt P54760); assay: Inhibition of EPHB4 (unknown origin) assessed as residual activity at 1000 nM by KINOMEscan analysis relative to control
T2 sequence (whole entry): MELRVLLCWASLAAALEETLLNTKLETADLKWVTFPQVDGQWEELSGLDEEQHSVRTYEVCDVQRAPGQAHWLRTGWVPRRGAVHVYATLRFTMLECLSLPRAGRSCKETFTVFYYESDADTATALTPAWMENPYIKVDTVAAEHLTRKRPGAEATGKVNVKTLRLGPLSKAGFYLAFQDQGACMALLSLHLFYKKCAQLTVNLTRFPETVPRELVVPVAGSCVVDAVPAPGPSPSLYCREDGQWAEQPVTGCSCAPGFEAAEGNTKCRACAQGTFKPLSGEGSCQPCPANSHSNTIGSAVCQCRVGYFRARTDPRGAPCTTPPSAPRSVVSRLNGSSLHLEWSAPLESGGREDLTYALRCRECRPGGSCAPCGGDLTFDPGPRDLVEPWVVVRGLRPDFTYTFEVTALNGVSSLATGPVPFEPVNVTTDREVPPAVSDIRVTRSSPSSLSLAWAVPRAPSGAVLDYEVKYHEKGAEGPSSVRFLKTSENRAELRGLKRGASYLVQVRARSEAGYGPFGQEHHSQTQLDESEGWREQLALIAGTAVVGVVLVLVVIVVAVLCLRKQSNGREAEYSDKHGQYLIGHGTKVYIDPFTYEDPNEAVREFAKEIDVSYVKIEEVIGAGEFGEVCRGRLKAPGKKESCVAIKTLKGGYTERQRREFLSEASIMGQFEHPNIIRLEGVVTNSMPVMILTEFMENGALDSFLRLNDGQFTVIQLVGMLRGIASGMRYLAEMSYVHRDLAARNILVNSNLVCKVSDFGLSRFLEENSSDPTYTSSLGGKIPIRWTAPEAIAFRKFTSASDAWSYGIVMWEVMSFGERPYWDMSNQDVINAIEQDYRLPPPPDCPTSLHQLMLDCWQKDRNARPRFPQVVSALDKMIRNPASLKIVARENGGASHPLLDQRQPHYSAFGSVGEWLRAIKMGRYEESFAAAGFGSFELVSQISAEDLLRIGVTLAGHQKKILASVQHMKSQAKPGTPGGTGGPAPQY

[6] = molecular target: Tyrosine-protein kinase Fer (Homo sapiens) (UniProt P16591); assay: Inhibition of FER (unknown origin) assessed as residual activity at 1000 nM by KINOMEscan analysis relative to control
[7] = molecular target: Interleukin-1 receptor-associated kinase 1 (Homo sapiens) (UniProt P51617); assay: Inhibition of IRAK1 (unknown origin) assessed as residual activity at 1000 nM by KINOMEscan analysis relative to control
[8] = molecular target: Ribosomal protein S6 kinase alpha-3 (Homo sapiens) (UniProt P51812); assay: Inhibition of N-terminal RSK2 kinetic domain 1 (unknown origin) assessed as residual activity at 1000 nM by KINOMEscan analysis relative to control
Homo sapiens = organism: Homo sapiens; assay: Inhibition of JNK2 (unknown origin) assessed as residual activity at 1000 nM by KINOMEscan analysis relative to control
[9] = molecular target: Serine/threonine-protein kinase pim-2 (Homo sapiens) (UniProt Q9P1W9); assay: Inhibition of PIM2 (unknown origin) assessed as residual activity at 1000 nM by KINOMEscan analysis relative to control
[10] = molecular target: T3, Serine/threonine-protein kinase Sgk3 (Homo sapiens) (UniProt Q96BR1); assay: Inhibition of SGK3 (unknown origin) assessed as residual activity at 1000 nM by KINOMEscan analysis relative to control
T3 sequence (whole entry): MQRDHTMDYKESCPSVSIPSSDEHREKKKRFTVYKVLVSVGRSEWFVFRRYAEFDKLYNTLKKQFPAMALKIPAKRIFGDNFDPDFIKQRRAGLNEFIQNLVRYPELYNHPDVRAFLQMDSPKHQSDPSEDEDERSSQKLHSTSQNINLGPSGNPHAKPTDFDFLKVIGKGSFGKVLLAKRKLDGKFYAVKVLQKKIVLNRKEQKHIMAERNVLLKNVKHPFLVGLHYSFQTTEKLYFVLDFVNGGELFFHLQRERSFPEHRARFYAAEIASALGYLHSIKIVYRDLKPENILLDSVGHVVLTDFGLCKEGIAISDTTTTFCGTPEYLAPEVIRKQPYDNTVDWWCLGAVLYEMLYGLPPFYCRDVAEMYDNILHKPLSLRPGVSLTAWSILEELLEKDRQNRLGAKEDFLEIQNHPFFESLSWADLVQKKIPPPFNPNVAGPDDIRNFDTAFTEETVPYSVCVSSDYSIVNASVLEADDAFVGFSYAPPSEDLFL

Chain of Tyrosine-protein kinase Fer (Homo sapiens) (P16591 whole entry, looked up): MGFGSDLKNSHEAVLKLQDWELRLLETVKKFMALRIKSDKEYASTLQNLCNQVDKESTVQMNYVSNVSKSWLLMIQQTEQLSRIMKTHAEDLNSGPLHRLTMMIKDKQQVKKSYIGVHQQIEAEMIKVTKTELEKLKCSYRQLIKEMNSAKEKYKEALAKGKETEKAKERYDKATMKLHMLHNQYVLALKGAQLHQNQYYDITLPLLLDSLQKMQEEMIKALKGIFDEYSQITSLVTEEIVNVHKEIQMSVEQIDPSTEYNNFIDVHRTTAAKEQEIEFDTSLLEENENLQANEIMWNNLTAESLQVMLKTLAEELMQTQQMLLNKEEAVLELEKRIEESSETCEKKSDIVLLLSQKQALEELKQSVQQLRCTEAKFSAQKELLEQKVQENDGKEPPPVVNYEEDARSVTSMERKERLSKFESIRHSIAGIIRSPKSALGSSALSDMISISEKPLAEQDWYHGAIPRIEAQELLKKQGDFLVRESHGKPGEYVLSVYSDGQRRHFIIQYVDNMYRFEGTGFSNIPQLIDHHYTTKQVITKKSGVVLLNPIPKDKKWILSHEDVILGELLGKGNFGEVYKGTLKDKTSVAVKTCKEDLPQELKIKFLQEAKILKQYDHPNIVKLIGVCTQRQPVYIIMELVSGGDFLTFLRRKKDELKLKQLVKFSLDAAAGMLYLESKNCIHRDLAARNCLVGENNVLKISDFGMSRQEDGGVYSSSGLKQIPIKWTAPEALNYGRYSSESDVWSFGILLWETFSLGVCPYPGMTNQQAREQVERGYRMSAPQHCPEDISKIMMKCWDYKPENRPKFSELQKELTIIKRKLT
Chain of Serine/threonine-protein kinase 32A (Homo sapiens) (Q8WU08 whole entry): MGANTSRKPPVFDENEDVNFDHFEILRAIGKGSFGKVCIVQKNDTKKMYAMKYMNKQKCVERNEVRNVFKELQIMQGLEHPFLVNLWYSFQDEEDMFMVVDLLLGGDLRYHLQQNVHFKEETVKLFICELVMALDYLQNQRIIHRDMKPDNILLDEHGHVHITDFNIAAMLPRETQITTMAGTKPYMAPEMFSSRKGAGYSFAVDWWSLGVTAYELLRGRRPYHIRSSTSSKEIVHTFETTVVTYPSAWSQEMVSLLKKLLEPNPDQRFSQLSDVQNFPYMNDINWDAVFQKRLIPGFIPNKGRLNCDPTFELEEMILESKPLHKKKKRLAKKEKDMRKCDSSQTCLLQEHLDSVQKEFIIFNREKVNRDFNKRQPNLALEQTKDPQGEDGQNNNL
Chain of Ribosomal protein S6 kinase alpha-3 (Homo sapiens) (P51812 whole entry, the tested form may be a part): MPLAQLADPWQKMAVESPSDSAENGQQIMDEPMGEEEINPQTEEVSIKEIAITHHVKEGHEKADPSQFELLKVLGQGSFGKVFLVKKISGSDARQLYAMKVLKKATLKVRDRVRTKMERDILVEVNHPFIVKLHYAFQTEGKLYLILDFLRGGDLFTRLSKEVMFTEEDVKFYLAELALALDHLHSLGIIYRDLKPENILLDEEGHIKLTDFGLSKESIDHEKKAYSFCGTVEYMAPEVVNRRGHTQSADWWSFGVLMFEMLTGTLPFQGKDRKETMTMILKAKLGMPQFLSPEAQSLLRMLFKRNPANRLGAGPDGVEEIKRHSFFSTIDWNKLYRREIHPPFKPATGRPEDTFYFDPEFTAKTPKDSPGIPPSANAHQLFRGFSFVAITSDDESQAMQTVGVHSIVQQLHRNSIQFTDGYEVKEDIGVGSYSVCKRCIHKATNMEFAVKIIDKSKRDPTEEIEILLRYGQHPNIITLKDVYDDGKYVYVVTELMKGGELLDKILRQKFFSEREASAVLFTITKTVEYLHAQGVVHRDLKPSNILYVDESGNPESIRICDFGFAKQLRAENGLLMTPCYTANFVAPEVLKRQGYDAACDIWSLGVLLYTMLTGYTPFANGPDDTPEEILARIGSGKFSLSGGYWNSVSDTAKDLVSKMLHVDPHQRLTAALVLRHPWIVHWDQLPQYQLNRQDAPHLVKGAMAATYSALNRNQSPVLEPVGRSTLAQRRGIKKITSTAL
Chain of Interleukin-1 receptor-associated kinase 1 (Homo sapiens) (P51617 whole entry, looked up, the tested form may be a part): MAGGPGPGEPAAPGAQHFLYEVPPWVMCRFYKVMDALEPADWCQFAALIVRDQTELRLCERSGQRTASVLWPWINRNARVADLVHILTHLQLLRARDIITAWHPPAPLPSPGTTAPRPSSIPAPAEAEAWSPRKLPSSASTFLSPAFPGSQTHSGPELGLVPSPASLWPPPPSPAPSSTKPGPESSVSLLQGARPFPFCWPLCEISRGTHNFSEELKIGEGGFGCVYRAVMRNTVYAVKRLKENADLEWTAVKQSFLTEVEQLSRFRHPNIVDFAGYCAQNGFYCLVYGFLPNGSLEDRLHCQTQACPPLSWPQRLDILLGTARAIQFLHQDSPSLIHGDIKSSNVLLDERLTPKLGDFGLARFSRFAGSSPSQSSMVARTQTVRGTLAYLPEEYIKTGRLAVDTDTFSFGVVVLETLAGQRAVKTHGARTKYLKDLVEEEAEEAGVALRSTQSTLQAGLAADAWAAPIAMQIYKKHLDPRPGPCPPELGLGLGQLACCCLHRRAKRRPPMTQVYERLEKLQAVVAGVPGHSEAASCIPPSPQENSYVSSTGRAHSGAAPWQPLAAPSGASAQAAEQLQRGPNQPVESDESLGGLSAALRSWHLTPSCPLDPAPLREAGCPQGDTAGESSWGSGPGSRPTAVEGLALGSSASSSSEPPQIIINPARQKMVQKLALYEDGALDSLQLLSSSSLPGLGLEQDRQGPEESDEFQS
Chain of Tyrosine-protein kinase Tec (Homo sapiens) (P42680 whole entry, looked up): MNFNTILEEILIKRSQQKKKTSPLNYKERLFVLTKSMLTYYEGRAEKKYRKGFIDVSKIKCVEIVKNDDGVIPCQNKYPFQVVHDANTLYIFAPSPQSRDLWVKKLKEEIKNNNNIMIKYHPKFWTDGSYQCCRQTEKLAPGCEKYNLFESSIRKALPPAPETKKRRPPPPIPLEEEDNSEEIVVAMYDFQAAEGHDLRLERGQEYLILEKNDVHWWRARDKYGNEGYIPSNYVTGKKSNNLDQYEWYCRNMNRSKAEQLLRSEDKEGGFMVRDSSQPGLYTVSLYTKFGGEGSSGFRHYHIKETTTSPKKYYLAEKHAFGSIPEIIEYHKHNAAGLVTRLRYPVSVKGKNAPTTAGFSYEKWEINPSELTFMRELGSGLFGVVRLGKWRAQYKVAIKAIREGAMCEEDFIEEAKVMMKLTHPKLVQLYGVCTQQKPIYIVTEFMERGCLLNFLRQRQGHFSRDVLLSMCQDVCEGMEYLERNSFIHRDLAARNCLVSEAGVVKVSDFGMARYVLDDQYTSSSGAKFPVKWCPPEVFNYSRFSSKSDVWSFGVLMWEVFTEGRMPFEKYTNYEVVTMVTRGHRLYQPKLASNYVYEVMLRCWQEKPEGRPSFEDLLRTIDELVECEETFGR
Chain of Serine/threonine-protein kinase pim-2 (Homo sapiens) (Q9P1W9 whole entry, looked up): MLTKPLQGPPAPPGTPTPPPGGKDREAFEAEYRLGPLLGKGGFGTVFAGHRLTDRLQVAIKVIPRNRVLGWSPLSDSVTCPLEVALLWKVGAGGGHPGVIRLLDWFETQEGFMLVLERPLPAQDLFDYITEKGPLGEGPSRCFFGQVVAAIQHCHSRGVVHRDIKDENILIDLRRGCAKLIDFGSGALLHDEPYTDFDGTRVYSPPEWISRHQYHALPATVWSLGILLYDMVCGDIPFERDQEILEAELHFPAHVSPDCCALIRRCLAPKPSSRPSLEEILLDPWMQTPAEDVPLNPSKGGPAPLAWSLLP
Chain of MAP kinase-activated protein kinase 2 (Homo sapiens) (P49137 whole entry, looked up): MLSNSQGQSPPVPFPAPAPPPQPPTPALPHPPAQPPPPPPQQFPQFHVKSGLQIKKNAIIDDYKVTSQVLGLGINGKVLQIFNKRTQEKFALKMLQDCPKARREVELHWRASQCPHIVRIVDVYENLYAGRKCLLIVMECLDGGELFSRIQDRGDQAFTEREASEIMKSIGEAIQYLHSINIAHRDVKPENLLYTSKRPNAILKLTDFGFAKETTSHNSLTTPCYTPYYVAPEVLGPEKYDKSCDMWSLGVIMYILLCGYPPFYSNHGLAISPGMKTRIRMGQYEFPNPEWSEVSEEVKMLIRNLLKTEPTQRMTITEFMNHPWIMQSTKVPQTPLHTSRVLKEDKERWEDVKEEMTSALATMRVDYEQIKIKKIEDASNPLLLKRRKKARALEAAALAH

## COc1cc2nc(C)nc(N[C@H](C)c3cccc(-c4cn[nH]c4)c3)c2cc1OC
[1]
  Activity: 97%
[2]
  Activity: 99%
[3]
  Activity: 85%
[4]
  Activity: 100%
[5]
  Activity: 45%
[6]
  Activity: 99%
[7]
  Activity: 68%
[8]
  Activity: 60%
Homo sapiens
  Activity: 71%
[9]
  Activity: 88%
[10]
  Activity: 90%

## COc1cc2ncnc(N[C@H](C)c3cccc4ccccc34)c2cc1OC
[1]
  Activity: 86%
[2]
  Activity: 100%
[3]
  Activity: 98%
[4]
  Activity: 100%
[5]
  Activity: 99%
[6]
  Activity: 97%
[7]
  Activity: 85%
[8]
  Activity: 95%
Homo sapiens
  Activity: 93%
[9]
  Activity: 96%
[10]
  Activity: 100%
